Key:
Type in all cases: cell-based, human
HDAC2 [1] = assay: Co-immunoprecipitation of flag-tagged HDAC2 with binding partners in H292 cells; settings: H292, flag-tagged WT HDAC2
Description: FIG. 16: HDAC2 serine phosphorylation is associated with increased interaction with catalytic subunits of protein kinase CK2 in response to CSE. A) Bronchial epithelial H292 cells transfected with either a control vector (control V) or flag-tagged WT HDAC2 were treated with 2.5% CSE for 0.5 h. […] C) Bronchial epithelial H292 cells transfected with flag-tagged WT HDAC2 were treated with either 2.5% CSE for 0.5 h, 25 or 50 μM Acrolein for 1 h and 200 μM H202 for 0.5 and 2 h respectively.
(§1) A) H292 cells cultured on 8-well chamber slides were treated with 2.5% CSE for 0.5 h or 50 μM Acrolein for 1 h, washed and fixed with 4% PFA. Slides were incubated with HDAC2 and α-tubulin antibodies overnight at […]. Slides were mounted with antifade mounting solution and images analysed by an Olympus inverted microscope. B) H292 cells were transfected with plasmid vector (Ctrl V) or flag-tagged WT HDAC2 (1-488) for 24 h with lipofectamine 2000. Cells were treated with 2.5% CSE for 0.5 h and flag proteins immunoprecipitated using M2 anti-flag antibodies overnight at 4° C. HDAC1 and C) p53 interaction were determined by western blot. D) H292 cells were transfected with plasmid vector (Ctrl V), flag-tagged WT HDAC2 (1-488) or S^394/^411/^422/^424A and 1-400 amino acid HDAC2 mutants for 24 h with lipofectamine 2000. Cells were then exposed to 2.5% CSE for 0.5 h. Levels of HDAC2 interaction with HDAC1 were determined by western blotting using specific antibodies. E) H292 cells were transfected with flag-tagged WT HDAC2 (1-488) for 24 h with lipofectamine 2000. […] Levels of phospho-serine and HDAC2 interaction with SAP30, RbAp46/48, MBD3 and p65 were determined by western blotting using specific antibodies respectively. […] Levels of HDAC1 and p65 binding to immunoprecipitated flag-tagged HDAC2 was determined by western blotting. […] Deacetylase activity of immunoprecipitated HDAC2 was determined using a specific HDAC2 deacetylase activity kit. Data expressed as mean±SEM (n=3). *** P<0.001 significant compared to control treatments.

HDAC2 [2] = assay: Serine phosphorylation of immunoprecipitated HDAC2 in H292 cells
Description: FIG. 6: CSE induced CK2-dependent HDAC2 phosphorylation in bronchial epithelial and small airway epithelial cells. [A (i)] H292 cells were treated with CSE (2.5%) for 0.5, 1, 2 and 4 h. Immunoprecipitated HDAC2 was analyzed for phosphorylation of serine residues using specific phospho-serine antibodies by SDS polyacrylamide gel. CSE induced significant cyclical phosphorylation of HDAC2 on serine residues at 0.5, 1 and 4 h. [A (ii)] Relative density of phosphor-serine expression normalized to immunoprecipitated HDAC2. [B (i)] […] Immunoprecipitated HDAC2 from whole cell lysates was probed for phosphorylation of serine residues, CSE induced a dose-dependent increase in HDAC2 serine phosphorylation. [B (ii)] Relative density of phospho-serine expression normalized to immunoprecipitated HDAC2. (C) H292 cells were treated with or without specific CK2 inhibitor, TBB. for 1 h, cells were washed with sterile 1×PBS and then treated with freshly prepared CSE (2.5%) for 0.5 h, Immunoprecipitated HDAC2 was assayed for phosphorylation on serine residues. […] (D) Relative density of phosphor-serine expression normalized to immunoprecipitated HDAC2.
FIG. 14: Loss of Serine Sites S^394, S^422, S^424 Abrogates Cigarette Smoke Extract (CSE)-Induced Phosphatase-Independent HDAC2 Phosphorylation. A) Bronchial epithelial H292 cells were transfected with plasmid vector or flag-tagged WT HDAC2 (1-488) for 24 h using lipofectamine 2000 and then treated with or without 2.5% CSE for 0.5 h or B) 50 μM. acrolein for 1 h. Flag-tagged proteins were immunoprecipitated overnight and serine phosphorylation detected by western blots using phospho-serine antibodies. C) Flag-tagged WT HDAC2 was immunoprecipitated from whole cell lysates of H292 cells treated with 2.5% CSE for 0.5 h. Immunoprecipates were then washed and treated with 400 U of λ-phosphatase or buffer alone for 1 h at 30° C. Phosphorylation of serine sites were detected by western blots using anti-serine antibodies. D) H292 cells were transfected with plasmid vector, flag-tagged WT HDAC2 (1-488) or S394A, S394/411/422/424A and 1-400 aa HDAC2 mutants for 24 h with lipofectamine 2000. Cells were then treated with 2.5% CSE for 0.5 h. Serine phosphorylation of immunoprecipitated flag proteins was determined by western blot. E) Phosphatase activity was determined using non-radioactive assay system (Promega). H292 cells were treated with or without 2.5% CSE for 0.5, 2 and 6 h with serine/threonine […] (okadaic acid) used as a positive control. 5 μg protein was incubated with PP2A specific-peptide substrate RRA(pT)VA and reaction buffer for 15 minutes in a 96-well plate. Molybdate dye/additive mixture was added to stop the reaction and color allowed to develop for 15 minutes. Optical density of samples was determined using a microplate reader with a 630 nm filter.
FIG. 18: Protein Kinase CK2 Inhibitors Blocks CSE-Induced HDAC2 Phosphorylation. A) Bronchial epithelial H292 cells transfected with a flag-tagged WT HDAC2 plasmid were treated with 2.5% CSE for 0.5 h. […] B) Relative density of phospho-serine expression normalized to immunoprecipitated HDAC2. Data expressed as mean±SEM (n=3). *** P<0.001, ### P<0.001 significant compared to control treatments.
Cell lysate controls were used.

HDAC2 [3] = assay: Deacetylase activity of immunoprecipitated HDAC2 from H292 cells; settings: NAC 2 mM 2 h, then CSE 2.5% 0.5 h
Description: as §1, with “Cells were then exposed to 2.5% CSE for 0.5 h.” left out, “antibodies.” for “antibodies. E) H292 cells were transfected with flag-tagged WT HDAC2 (1-488) for 24 h with lipofectamine 2000.”

HDAC2 [4] = assay: HDAC2 cellular localization in H292 cells (immunofluorescence); settings: acrolein 50 μM, 1 h
Description: as §1, with “Cells were then exposed to 2.5% CSE for 0.5 h.” left out, “antibodies.” for “antibodies. E) H292 cells were transfected with flag-tagged WT HDAC2 (1-488) for 24 h with lipofectamine 2000.”

Row | Compound | HDAC2 interaction with co-repressor proteins (SAP30, MBD3) and p65 (HDAC2 [1]; NAC 2 mM 2 h, then CSE 2.5% 0.5 h) | CSE-induced HDAC2 phosphorylation (HDAC2 [2]; H292, flag-tagged WT HDAC2, NAC 2 mM 2 h, then CSE 2.5% 0.5 h) | CSE-induced decrease in HDAC2 deacetylase activity (HDAC2 [3]) | HDAC2 CK2α′ binding (HDAC2 [1]; acrolein 25 and 50 μM, 1 h) | serine phosphorylation of flag-tagged full length HDAC2 (HDAC2 [2]; H292, acrolein 50 μM, 1 h) | HDAC2 cellular localization (HDAC2 [4])
1 | CC(=O)N[C@@H](CS)C(=O)O [NAC, N-acetyl cysteine] | blocked HDAC2 interaction with co-repressor proteins | Inhibiting CSE-induced HDAC 2 phosphorylation | rescued |  |  | 
2 | C=CC=O [acrolein] |  |  |  | increased HDAC2 CK2α′ binding | significantly phosphorylated on serine residues | remained localized to the nucleus
